From PMC12365235, “Molecular mechanisms of thiazide-like diuretics-mediated inhibition of the human Na-Cl cotransporter” (Nature Communications, 2025)

Target: T1, hNCC(G230A) (Homo sapiens, UniProt P55017, G230A)
T1 construct: expressed in transfected cells
T1 sequence (P55017 1-1021 G230A): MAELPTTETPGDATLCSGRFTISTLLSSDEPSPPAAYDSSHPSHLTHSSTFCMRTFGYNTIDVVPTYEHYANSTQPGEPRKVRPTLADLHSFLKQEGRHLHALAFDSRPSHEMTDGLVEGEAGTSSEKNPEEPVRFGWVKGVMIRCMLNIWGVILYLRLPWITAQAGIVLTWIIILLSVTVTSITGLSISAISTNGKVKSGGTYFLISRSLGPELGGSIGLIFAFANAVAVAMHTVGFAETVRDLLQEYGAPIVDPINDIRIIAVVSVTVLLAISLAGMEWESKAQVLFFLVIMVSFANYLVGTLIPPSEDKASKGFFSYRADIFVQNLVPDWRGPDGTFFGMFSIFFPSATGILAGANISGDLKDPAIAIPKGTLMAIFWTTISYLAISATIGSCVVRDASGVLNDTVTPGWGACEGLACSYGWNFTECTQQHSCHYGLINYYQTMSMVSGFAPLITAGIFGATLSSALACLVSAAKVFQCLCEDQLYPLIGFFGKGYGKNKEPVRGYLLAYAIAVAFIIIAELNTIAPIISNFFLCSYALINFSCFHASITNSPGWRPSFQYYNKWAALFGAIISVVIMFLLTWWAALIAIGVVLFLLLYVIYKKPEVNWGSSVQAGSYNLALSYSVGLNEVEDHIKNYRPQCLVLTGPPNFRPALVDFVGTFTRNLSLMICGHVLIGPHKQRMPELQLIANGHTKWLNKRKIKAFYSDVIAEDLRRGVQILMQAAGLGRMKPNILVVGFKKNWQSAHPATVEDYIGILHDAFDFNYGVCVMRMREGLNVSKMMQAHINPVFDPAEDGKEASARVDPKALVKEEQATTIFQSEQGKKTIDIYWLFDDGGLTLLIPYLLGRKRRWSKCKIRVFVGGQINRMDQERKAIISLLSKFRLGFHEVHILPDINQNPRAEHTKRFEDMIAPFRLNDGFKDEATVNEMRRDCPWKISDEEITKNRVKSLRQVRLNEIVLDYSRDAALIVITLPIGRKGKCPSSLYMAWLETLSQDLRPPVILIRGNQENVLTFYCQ
Test: 125I- uptake assay, hNCC(G230A) variant
Type: cell-based
Settings: for fold less sensitive than hNCC(WT) / IC50: G230A substitution; for IC50: iodide uptake
Procedure: HEK293S cell lines, cultured in 293 Freestyle medium (Life Technologies; plus 10% fetal bovine serum), stably expressing hNCC and its variants were generated following published protocols. Cells were transfected using Lipofectamine 3000 (Invitrogen) with a pSBbi-RP-based plasmid containing hNCC or its variants and the SB100X vector. Puromycin (2 μg/mL; Gemini Bio-Products) was used for selection of stable cell lines.
To prepare for the uptake experiment, cells were plated at 0.5 × 10^6 cells/well in 24-well plates one day in advance. To activate NCC, cells were treated with a chloride-free hypotonic solution composed of 67.5 mM sodium-, 2.5 mM potassium-, 0.25 mM magnesium-, and 0.25 mM calcium-gluconate, as well as 7.5 mM HEPES pH 7.4 (buffered using Tris) at 37 °C for 10 min[72]. After the activation step, the experiments were carried out at room temperature. Ten minutes before the start of ^125I^− uptake, 70 μM Bumetanide (Thermo Scientific Chemicals) and 100 μM 4,4′-diisothiocyanatostilbene-2,2′-disulfonic acid (DIDS; Sigma) were added to suppress background iodide uptake activity. Indicated thiazide diuretics were also added to the indicated concentrations 10 min before the start of ^125I^− uptake. The original buffer was switched to an uptake buffer composed of 135 mM Na-gluconate, 5 mM K-gluconate, 1 mM Mg-gluconate, 1 mM Ca-gluconate, 70 μM bumetanide, 100 μM DIDS, 1 mM NaI, 0.25 μCi/ml Na^125I (American Radiolabeled Chemicals, Inc.), and 15 mM HEPES pH 7.4 (buffered using Tris), in the presence or absence of thiazide diuretics to initiate ^125I^− uptake. The ^125I^− uptake process lasted 1 h and was stopped by two rapid washes using ice-cold 110 mM MgCl2. Cells lysed using 1% sodium dodecyl sulfate (SDS) were analyzed by scintillation counting.
To calculate the fold change of the half-maximal inhibitory concentration (IC50) between hNCC(WT) and different hNCC variants, individual dose-response curves were normalized first using the smallest mean and the value of the lowest concentration as 0% and 100%, respectively. The normalized data were then fitted using the “EC50 shift” nonlinear regression in GraphPad Prism 10 with the shared EC50Control assigned to be the IC50 of hNCC(WT). The following constraints were used in the EC50 shift analysis. The EC50Control was set to be shared across all curves under analysis and constrained to be greater than 0. The EC50Ratio was constrained to be greater than 0. The bottom, top, and HillSlope were constrained to be 0, 100, and −1, respectively. For Fig. 1f, g and Supplementary Fig. 2d, GraphPad Prism 10 was used to perform curve fitting and IC50 calculation for normalized data using y = 100/(1 + (x/IC50)).

SMILES	fold less sensitive than hNCC(WT)	IC50	inhibition of transport activity (100 μM polythiazide, G230A)
CC1Cc2ccccc2N1NC(=O)c1ccc(Cl)c(S(N)(=O)=O)c1 (stereo not shown) [indapamide]	~ 2 fold	29 nM	
NS(=O)(=O)c1cc(C2(O)NC(=O)c3ccccc32)ccc1Cl (stereo not shown) [chlorthalidone]	approximately 40 fold	930 nM	
CN1C(CSCC(F)(F)F)Nc2cc(Cl)c(S(N)(=O)=O)cc2S1(=O)=O (stereo not shown) [polythiazide]	~ 2 fold	1.4 nM	fully inhibited
